The text below walks through data of BindingDB's records for doi:10.1021/jm00037a021 (Rhône-Poulenc Rorer, 1994).

Molecules are shown by their SMILES.

In general, IC50 refers to the concentration needed to halve the response being measured. High values mean weaker potency in that assay, low ones greater potency in that assay.

The assay addresses cGMP-specific 3',5'-cyclic phosphodiesterase PDE V (Sus scrofa). Put plainly: Inhibitory potency against pig aortic PDE V.
For `COC(=O)c1ccccc1NC(=O)c1ccc(OC)c(OC2CCCC2)c1` [2-(3-Cyclopentyloxy-4-methoxy-benzoylamino)-benzoic acid methyl ester], the IC50 was found to be 5.5 µM.
The value for `COc1ccc(C(=O)Nc2ccccc2F)cc1OC1CCCC1` [3-(cyclopentyloxy)-N-(2-fluorophenyl)-4-methoxybenzamide] was greater than 1000 µM; that for `COc1ccc(C(=O)Nc2ccccc2SC)cc1OC1CCCC1` [3-Cyclopentyloxy-4-methoxy-N-(2-methylsulfanyl-phenyl)-benzamide] was greater than 200 µM.
The value for `COc1ccc(C(=O)Nc2ccccc2C(F)(F)F)cc1OC1CCCC1` [3-Cyclopentyloxy-4-methoxy-N-(2-trifluoromethyl-phenyl)-benzamide] was greater than 1000 µM; that for `COc1ccc(C(=O)Nc2ccccc2C)cc1OC1CCCC1` [3-Cyclopentyloxy-4-methoxy-N-o-tolyl-benzamide] was greater than 1000 µM.
On to `COc1ccc(C(=O)Nc2ccc(C)cc2)cc1OC1CCCC1` [3-Cyclopentyloxy-4-methoxy-N-p-tolyl-benzamide], for which the IC50 is greater than 200 µM.
The value for `COc1ccc(C(=O)Nc2cccc(Cl)c2Cl)cc1OC1CCCC1` [3-Cyclopentyloxy-N-(2,3-dichloro-phenyl)-4-methoxy-benzamide] was greater than 200 µM; that for `COc1ccc(C(=O)Nc2c(F)cccc2F)cc1OC1CCCC1` [3-Cyclopentyloxy-N-(2,6-difluoro-phenyl)-4-methoxy-benzamide] was greater than 1000 µM; that for `COc1ccc(C(=O)Nc2ccccc2O)cc1OC1CCCC1` [3-Cyclopentyloxy-N-(2-hydroxy-phenyl)-4-methoxy-benzamide] was 175 µM.
As for `COc1ccc(C(=O)Nc2ccc(F)cc2)cc1OC1CCCC1` [3-Cyclopentyloxy-N-(4-fluoro-phenyl)-4-methoxy-benzamide], the figure is greater than 1000 µM.
The compound `COc1ccc(C(=O)Nc2ccccc2C(=O)c2ccccc2)cc1OC1CCCC1` [N-(2-Benzoyl-phenyl)-3-cyclopentyloxy-4-methoxy-benzamide] came in with an IC50 of 2.5 µM.
The value for `COc1ccc(C(=O)Nc2ccccc2Br)cc1OC1CCCC1` [N-(2-Bromo-phenyl)-3-cyclopentyloxy-4-methoxy-benzamide] was greater than 1000 µM; that for `COc1ccc(C(=O)Nc2c(F)cccc2Cl)cc1OC1CCCC1` [N-(2-Chloro-6-fluoro-phenyl)-3-cyclopentyloxy-4-methoxy-benzamide] was greater than 1000 µM; that for `COc1ccc(C(=O)Nc2c(C)cccc2Cl)cc1OC1CCCC1` [N-(2-Chloro-6-methyl-phenyl)-3-cyclopentyloxy-4-methoxy-benzamide] was greater than 1000 µM.
As for `COc1ccc(C(=O)Nc2ccccc2Cl)cc1OC1CCCC1` [N-(2-Chloro-phenyl)-3-cyclopentyloxy-4-methoxy-benzamide], the figure is greater than 200 µM.
The compound `COc1ccc(C(=O)Nc2cccc(Cl)c2)cc1OC1CCCC1` [N-(3-Chloro-phenyl)-3-cyclopentyloxy-4-methoxy-benzamide] had a half-inhibitory concentration (IC50) greater than 40 µM.
As for `COc1ccc(C(=O)Nc2ccc(Cl)cc2)cc1OC1CCCC1` [N-(4-Chloro-phenyl)-3-cyclopentyloxy-4-methoxy-benzamide], the figure is greater than 1000 µM.
